The experiment deals with M. tuberculosis H37Rv growth inhibition. The experiment is described as follows: M. tuberculosis H37Rv growth inhibitors, H37Rv strain (AID 1626). The settings on record: for CC50: measured here: Vero cell cytotoxicity; for IC90: measured here: IC90 against H37Rv.

Where only a bound is given, the exact number is not on record here.

A word on the CC50: it is the concentration giving 50% cytotoxicity. Lower therefore signals harm at low concentration. The IC50 is the concentration that inhibits the measured activity by half. The term IC90 denotes the concentration needed for an effect of 90%.

The compound `COc1cc(/C=C(/C#N)C(=O)Nc2ccc(C)cc2)ccc1Oc1nc(Cl)ncc1F` showed a CC50 of over 40 µM.
For the compound `O=C(c1coc2ccc(O)cc12)C1CC1`, the IC50 was 27.5 µM and the IC90 was over 100 µM.
`CCc1ccc(NC(=O)CSc2ccccn2)cc1`: the half-inhibitory concentration (IC50) is 22.1 µM and the IC90 was over 100 µM.
With `N#CC(c1ccc(Cl)cc1)c1ccc2c(C(F)(F)F)cc(C(F)(F)F)nc2n1` (centres undefined), the half-maximal inhibitory concentration (IC50) is 0.571 µM, the IC90 turned out to be 0.691 µM and the CC50 worked out at 0.904 µM.
As for `O=C(CNCc1ccccc1)Nc1ccc(Oc2ccccc2)cc1`, the IC50 was 13.2 µM and the IC90 is over 100 µM.
Regarding `CCOc1ccc(NC(=O)CCn2cccc2)cc1`, the IC90 is over 100 µM.
`CCOC(=O)CSc1ncnc2c1cnn2-c1ccc(C)cc1`: the IC50 was 10.1 µM and the IC90 is 22.5 µM.
Taken in the same sequence, the figures for `COc1ccc(Nc2ccccc2N)cc1` were 1.05 µM and 2.46 µM.
Turning to `Cc1nn(-c2ccccc2)c(C)c1C(=O)Nc1nnc(-c2ccco2)o1`, the IC50 was 13.5 µM, the IC90 is over 100 µM and the CC50 amounted to 38.5 µM.
Taken in the same sequence, the figures for `Cc1cc(NCc2ccccn2)n2ncc(-c3ccccc3)c2n1` were 4.82 µM, 7.62 µM and 31.4 µM.
Consider `CCC(=O)Nc1cccc(C(=O)/C=C/c2ccccc2)c1`, for which the IC50 was 22.1 µM, the IC90 was determined as 28.2 µM and the CC50 is 10.7 µM.
Turning to `CCCCCCCn1c(=O)c(C(=O)Nc2cnccn2)c(O)c2ccccc21`, the IC50 is under 0.195 µM, the IC90 is under 0.195 µM and the half-maximal cytotoxic concentration (CC50) is 2.37 µM.
For the compound `O=C(CC(SCc1ccco1)c1ccc(O)cc1)c1cccs1` (centres undefined), the IC50 is 27.4 µM, the IC90 is over 100 µM and the cytotoxic concentration (CC50) is over 40 µM.
Taken in the same sequence, the figures for `Cc1ccc(-c2noc(CCC(=O)NCCCN3CCN(c4cccc(Cl)c4)CC3)n2)cc1` were 9.9 µM, 13.2 µM and over 40 µM.
Taken in the same sequence, the figures for `O=C(Nc1nnc(-c2ccccc2)o1)c1nc2ccccc2s1` were 6.13 µM, 13.6 µM and over 40 µM.
Taken in the same sequence, the figures for `N=C1SC(c2ccccc2)C(=O)N1c1ncc(Cc2ccccc2)s1` (centres undefined) were 26 µM, over 100 µM and 34.9 µM.
As to `O=C(OCc1ccc(F)cc1)c1ccc2ccccc2n1`, the IC50 is 8.16 µM and the IC90 was 14.4 µM.
As to `COc1ccc(-c2cc3nc(C)c(CCC(=O)NCc4ccc(F)cc4)c(C)n3n2)c(OC)c1`, the CC50 is over 40 µM.
In the case of `COc1cc(C)c(/C=C/C(C)=C/C=C/C(C)=C/C(=O)O)c(C)c1C`, the IC50 was 0.488 µM, the IC90 was over 100 µM and the CC50 is over 40 µM.
Compound `CSc1nc2ccc(NS(=O)(=O)c3cccc(Cl)c3Cl)cc2s1` yielded an IC90 of over 100 µM.
For the compound `Cc1ccccc1OCC(=O)Nc1nc2ccccc2[nH]1`, the IC50 is 4.82 µM and the IC90 was determined as 16.2 µM.
Regarding `O=C(Nc1nnc(SCc2ccc(F)cc2)s1)c1ccccn1`, the IC50 was 0.342 µM, the IC90 was determined as 5.05 µM and the CC50 was determined as 4.74 µM.
Taken in the same sequence, the figures for `CSc1nc(-c2ccccc2)nc(C(Cl)Cl)n1` were 1.37 µM, 2.04 µM and 6.42 µM.
Regarding `COc1ccc(C2/C=C\CN(C(=O)Nc3ccc(C(F)(F)F)cc3)CC(=O)N2Cc2ccc(F)cc2)cc1` (centres undefined), the IC50 is 5.74 µM, the IC90 is 6.73 µM and the CC50 worked out at 16.7 µM.
For `COc1cc2c(cc1NCc1ccc3c(c1)OCO3)oc1ccccc12`, the IC50 is 89.1 µM and the IC90 is over 100 µM.
Taken in the same sequence, the figures for `Cc1ccc(Cl)c(OC(=O)c2ccc(N3CCOCC3)c([N+](=O)[O-])c2)c1` were 6.6 µM and over 100 µM.
For the compound `Cc1ccc(Cl)cc1NC1=C/C(=N\S(=O)(=O)c2cccs2)c2ccccc2C1=O`, the half-maximal inhibitory concentration (IC50) was 1.91 µM, the IC90 was 3.21 µM and the CC50 came to 5.83 µM.

The record behind these values is PubChem BioAssay AID1626 (SRMLSC, 2009).
